ChEMBL document CHEMBL1201862, “PubChem BioAssay data set” (2004)
Active and inactive are the calls of the source.

How the values were obtained:
[1] = target: T1, G-protein coupled receptor 55 (Homo sapiens, UniProt Q9Y2T6); assay: GPR55 antagonists blocking LPI-driven arrestin recruitment, primary screen, imaging, U2OS, beta-arrestin-GFP, LPI agonist (AID 2013); assay type: functional;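 further: antagonist potency measured as reduced agonist-driven arrestin aggregation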
[2] = target: Peroxisome proliferator-activated receptor gamma/Nuclear receptor coactivator 1 (Homo sapiens, UniProt P37231); assay: (§1) TR-FRET dose response biochemical High Throughput Screening assay for agonists of the steroid receptor coactivator 1 (SRC-1) recruitment by the peroxisome proliferator-activated receptor gamma (PPAR gamma): non-selective agonists. [Related pubchem assays (depositor defined):AID1300, AID1808, AID504735, AID631]; assay type: protein assay
[3] = target: Peroxisome proliferator-activated receptor gamma/Nuclear receptor coactivator 3 (Homo sapiens, UniProt P37231); assay: as §1, with “3 (SRC-3)” for “1 (SRC-1)”, “assays: 1301 (Confirmation screen.), 1048 (Primary screen.)]” for “assays (depositor defined):AID1300, AID1808, AID504735, AID631]”; assay type: functional
[4] = target: Peroxisome proliferator-activated receptor gamma/Nuclear receptor coactivator 2 (Homo sapiens, UniProt P37231); assay: TR-FRET dose response biochemical High Throughput Screening assay for agonists of the steroid receptor coactivator 2 (SRC-2) recruitment by the peroxisome proliferator-activated receptor gamma (PPAR gamma): non-selective agonists. [Related pubchem assays: 1297, 1032 ]; assay type: functional
Vero [5] = assay: cells; assay type: functional; settings: Chlorocebus sabaeus
Vero [6] = assay: cells; assay type: functional, cell-based; settings: Chlorocebus sabaeus
Cytochrome P450 3A4 = Cytochrome P450 3A4 (Homo sapiens, UniProt P08684);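 further: CYP3A4 tested as one member of a cytochrome P450 panel screen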
[7] = target: Glyceraldehyde-3-phosphate dehydrogenase (Homo sapiens, UniProt P04406)
[8] = target: T2, Alkaline phosphatase, tissue-nonspecific isozyme (Homo sapiens, UniProt P05186); assay: human TNAP enzyme inhibitors, SAR follow-up, biochemical, luminescent, dose response (AID 1056)
T2 sequence (P05186 whole entry): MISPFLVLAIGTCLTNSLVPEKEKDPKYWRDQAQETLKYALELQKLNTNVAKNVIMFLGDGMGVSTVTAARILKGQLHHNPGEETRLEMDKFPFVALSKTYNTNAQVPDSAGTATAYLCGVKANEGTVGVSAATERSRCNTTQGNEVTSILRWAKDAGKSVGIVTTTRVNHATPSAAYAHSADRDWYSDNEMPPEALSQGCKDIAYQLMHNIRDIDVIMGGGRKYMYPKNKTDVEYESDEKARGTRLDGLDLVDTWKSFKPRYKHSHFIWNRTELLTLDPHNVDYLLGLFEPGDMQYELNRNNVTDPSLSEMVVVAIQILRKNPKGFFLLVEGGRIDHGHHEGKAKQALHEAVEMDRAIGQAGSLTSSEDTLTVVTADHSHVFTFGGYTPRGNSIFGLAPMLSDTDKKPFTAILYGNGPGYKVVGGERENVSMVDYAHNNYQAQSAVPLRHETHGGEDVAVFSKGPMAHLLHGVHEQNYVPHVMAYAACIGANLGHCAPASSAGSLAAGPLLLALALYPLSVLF

Aminopeptidase N = target: T3, Aminopeptidase N (Plasmodium falciparum FcB1/Columbia, UniProt O96935); assay: P. falciparum M1AAP inhibitors, biochemical, fluorogenic H-Leu-NHMec substrate, 1536-well (AID 1445); parameters: species or system Plasmodium falciparum 3D7, 3D7
T3 sequence (O96935 whole entry): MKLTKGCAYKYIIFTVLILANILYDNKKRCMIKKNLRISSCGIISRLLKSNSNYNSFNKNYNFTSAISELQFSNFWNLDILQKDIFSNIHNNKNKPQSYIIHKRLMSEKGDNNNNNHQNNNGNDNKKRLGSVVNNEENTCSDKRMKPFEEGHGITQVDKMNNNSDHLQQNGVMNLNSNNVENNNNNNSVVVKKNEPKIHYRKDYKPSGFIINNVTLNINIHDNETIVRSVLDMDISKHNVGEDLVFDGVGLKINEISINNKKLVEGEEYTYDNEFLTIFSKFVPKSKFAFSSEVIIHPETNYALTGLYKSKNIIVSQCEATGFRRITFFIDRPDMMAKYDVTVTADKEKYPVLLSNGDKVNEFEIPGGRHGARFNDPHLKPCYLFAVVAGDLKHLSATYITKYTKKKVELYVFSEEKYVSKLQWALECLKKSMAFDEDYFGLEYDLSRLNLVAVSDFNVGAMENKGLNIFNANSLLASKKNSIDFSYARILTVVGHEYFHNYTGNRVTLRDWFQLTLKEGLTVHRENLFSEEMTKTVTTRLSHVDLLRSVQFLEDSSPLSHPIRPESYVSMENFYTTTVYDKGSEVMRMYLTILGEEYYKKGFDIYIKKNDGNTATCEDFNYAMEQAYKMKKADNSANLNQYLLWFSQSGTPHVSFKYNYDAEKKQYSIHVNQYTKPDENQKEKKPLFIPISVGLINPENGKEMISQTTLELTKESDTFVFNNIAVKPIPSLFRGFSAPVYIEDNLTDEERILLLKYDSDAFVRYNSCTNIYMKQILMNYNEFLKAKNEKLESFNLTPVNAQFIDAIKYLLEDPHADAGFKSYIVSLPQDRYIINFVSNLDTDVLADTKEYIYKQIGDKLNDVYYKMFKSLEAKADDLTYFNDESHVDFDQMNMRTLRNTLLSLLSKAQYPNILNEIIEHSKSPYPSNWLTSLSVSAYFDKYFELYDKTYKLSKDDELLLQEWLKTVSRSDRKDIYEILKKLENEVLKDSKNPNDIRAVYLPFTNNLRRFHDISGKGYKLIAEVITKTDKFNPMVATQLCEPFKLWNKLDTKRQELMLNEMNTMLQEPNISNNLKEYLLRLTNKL

[9] = target: T4, Ubiquitin-conjugating enzyme E2 N (Homo sapiens, UniProt P61088); assay type: functional
T4 sequence (P61088 whole entry): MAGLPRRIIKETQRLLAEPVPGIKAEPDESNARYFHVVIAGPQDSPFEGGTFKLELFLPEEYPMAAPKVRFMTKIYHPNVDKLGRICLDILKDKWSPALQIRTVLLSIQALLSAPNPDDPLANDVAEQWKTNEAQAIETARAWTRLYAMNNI

[10] = target: T4, Ubiquitin-conjugating enzyme E2 N; assay type: functional; remark: listed apart in the source
Bcl-2-related protein A1 = target: T5, Bcl-2-related protein A1 (Mus musculus, UniProt Q07440); assay type: functional;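 further: confirmatory dose–response counterscreen on Bfl-1, used to check hits from a UBC13 polyubiquitin inhibitor campaign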
T5 sequence (Q07440 whole entry): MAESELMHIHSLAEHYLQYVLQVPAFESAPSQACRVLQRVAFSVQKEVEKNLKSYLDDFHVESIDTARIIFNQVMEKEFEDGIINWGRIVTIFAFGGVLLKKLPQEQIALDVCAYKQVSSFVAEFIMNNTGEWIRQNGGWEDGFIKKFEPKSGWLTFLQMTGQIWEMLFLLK

Streptokinase A = target: T6, Streptokinase A (Streptococcus pyogenes serotype M1, UniProt P10520); assay: S. pyogenes streptokinase expression inhibitors, potency, dose response, plasminogen activation absorbance, OD405 (AID 1914); assay type: functional, Streptococcus pyogenes M1 GAS;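 further: secreted streptokinase activity via plasminogen activation per viability signal from cell pellet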
T6 sequence (P10520 whole entry): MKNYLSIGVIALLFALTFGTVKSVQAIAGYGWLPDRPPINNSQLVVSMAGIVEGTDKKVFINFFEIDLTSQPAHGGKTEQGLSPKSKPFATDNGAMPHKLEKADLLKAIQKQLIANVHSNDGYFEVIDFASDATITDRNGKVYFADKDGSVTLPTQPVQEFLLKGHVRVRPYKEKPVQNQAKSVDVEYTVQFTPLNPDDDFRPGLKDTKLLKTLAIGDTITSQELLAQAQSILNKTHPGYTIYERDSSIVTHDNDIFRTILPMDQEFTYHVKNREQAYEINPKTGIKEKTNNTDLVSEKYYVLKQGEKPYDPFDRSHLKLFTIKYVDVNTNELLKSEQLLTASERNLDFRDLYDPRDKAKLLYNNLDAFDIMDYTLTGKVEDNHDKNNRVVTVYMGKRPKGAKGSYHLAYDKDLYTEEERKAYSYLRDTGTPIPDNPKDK

[11] = cytotoxicity in HPDE-C7 cells, cell-based, fluorescence, HTS (AID 430); assay type: functional; settings: Homo sapiens
[12] = target: Voltage-dependent T-type calcium channel subunit alpha-1H (Homo sapiens, UniProt O95180); assay type: functional;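 further: channel activity triggered by adding a high calcium stimulation buffer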
[13] = test system: Streptococcus sp. 'group A'; assay: growth inhibition of control SK(-) GAS strain, dose response, counter-screen for streptokinase expression inhibitor project, luminescence, kanamycin, BacTiterGlo, confirmation (AID 1900); assay type: functional, organism-based
[14] = cytotoxicity in KRAS-transformed pancreatic duct cells, primary screen, cell-based, fluorescence, HTS (AID 431); assay type: functional; settings: Homo sapiens;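 further: cell line used: HPDE-C7K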
Streptococcus = assay: Group A Streptococcus viability loss, dose response, counter-screen for streptokinase expression inhibitor project, luminescence, BacTiterGlo (AID 1915); assay type: functional, organism-based;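 further: potency for reduction of bacterial viability or growth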
[15] = target: T1, G-protein coupled receptor 55; assay: GPR55 agonists via beta-arrestin recruitment, primary screen, imaging, U2OS cells, beta-arrestin-GFP redistribution (AID 1961); assay type: functional
cells = assay type: functional, cell-based; settings: HEK-CNG
Galanin receptor type 3 = target: T7, Galanin receptor type 3 (Homo sapiens, UniProt O60755); assay: Fluorescence-based cell-based primary high throughput dose response assay to identify antagonists of the Galanin Receptor 3 (GalR3).; assay type: functional
T7 sequence (O60755 whole entry): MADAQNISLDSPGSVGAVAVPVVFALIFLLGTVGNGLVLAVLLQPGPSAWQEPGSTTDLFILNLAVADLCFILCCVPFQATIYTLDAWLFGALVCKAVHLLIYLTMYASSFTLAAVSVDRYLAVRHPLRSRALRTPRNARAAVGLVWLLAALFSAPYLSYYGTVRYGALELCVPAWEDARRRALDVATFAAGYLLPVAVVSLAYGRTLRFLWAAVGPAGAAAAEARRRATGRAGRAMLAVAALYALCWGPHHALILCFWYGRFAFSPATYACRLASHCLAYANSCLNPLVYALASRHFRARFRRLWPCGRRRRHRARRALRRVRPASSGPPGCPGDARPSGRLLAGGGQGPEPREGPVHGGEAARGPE

[16] = target: T8, Endoribonuclease toxin MazF (Escherichia coli K-12, UniProt P0AE70); assay: fluorescent RNA oligo signal without MazF, dose response, counter-screen for MazEF activator project, biochemical, fluorescence, single-stranded RNase substrate (AID 588502); assay type: functional
T8 sequence (P0AE70 whole entry): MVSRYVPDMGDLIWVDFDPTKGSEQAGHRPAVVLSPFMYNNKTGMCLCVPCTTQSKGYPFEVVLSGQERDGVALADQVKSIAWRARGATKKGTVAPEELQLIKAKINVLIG

[17] = target: T8, Endoribonuclease toxin MazF; assay: MazF toxin RNase activators, dose response, biochemical, fluorescence, single-stranded RNA substrate, uHTS hits (AID 588481); assay type: functional

T1 sequence (Q9Y2T6 whole entry): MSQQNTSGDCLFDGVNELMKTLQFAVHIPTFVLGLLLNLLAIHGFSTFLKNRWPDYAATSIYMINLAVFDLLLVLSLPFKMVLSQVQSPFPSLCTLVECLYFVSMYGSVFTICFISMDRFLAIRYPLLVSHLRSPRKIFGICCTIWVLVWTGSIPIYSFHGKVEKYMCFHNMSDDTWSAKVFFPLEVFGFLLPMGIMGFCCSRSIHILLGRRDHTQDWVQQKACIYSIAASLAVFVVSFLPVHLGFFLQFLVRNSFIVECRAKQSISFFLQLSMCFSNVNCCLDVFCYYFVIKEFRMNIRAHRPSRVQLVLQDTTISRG
Sequence of Peroxisome proliferator-activated receptor gamma/Nuclear receptor coactivator 1 (P37231 whole entry): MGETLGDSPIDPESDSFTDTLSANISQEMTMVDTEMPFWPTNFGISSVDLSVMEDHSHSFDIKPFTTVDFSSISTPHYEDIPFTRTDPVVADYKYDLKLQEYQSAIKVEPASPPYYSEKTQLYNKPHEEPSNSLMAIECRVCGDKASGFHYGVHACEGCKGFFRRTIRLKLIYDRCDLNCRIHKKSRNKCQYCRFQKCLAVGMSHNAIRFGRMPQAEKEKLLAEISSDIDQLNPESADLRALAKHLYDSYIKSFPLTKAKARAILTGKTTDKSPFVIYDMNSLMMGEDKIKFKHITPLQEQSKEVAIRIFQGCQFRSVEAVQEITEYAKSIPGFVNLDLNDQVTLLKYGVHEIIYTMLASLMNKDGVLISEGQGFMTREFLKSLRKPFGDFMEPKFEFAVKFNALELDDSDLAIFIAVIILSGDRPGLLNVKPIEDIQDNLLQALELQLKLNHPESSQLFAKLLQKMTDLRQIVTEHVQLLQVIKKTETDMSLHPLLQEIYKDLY
Sequence of Peroxisome proliferator-activated receptor gamma/Nuclear receptor coactivator 1 (Q15788 whole entry, further chain): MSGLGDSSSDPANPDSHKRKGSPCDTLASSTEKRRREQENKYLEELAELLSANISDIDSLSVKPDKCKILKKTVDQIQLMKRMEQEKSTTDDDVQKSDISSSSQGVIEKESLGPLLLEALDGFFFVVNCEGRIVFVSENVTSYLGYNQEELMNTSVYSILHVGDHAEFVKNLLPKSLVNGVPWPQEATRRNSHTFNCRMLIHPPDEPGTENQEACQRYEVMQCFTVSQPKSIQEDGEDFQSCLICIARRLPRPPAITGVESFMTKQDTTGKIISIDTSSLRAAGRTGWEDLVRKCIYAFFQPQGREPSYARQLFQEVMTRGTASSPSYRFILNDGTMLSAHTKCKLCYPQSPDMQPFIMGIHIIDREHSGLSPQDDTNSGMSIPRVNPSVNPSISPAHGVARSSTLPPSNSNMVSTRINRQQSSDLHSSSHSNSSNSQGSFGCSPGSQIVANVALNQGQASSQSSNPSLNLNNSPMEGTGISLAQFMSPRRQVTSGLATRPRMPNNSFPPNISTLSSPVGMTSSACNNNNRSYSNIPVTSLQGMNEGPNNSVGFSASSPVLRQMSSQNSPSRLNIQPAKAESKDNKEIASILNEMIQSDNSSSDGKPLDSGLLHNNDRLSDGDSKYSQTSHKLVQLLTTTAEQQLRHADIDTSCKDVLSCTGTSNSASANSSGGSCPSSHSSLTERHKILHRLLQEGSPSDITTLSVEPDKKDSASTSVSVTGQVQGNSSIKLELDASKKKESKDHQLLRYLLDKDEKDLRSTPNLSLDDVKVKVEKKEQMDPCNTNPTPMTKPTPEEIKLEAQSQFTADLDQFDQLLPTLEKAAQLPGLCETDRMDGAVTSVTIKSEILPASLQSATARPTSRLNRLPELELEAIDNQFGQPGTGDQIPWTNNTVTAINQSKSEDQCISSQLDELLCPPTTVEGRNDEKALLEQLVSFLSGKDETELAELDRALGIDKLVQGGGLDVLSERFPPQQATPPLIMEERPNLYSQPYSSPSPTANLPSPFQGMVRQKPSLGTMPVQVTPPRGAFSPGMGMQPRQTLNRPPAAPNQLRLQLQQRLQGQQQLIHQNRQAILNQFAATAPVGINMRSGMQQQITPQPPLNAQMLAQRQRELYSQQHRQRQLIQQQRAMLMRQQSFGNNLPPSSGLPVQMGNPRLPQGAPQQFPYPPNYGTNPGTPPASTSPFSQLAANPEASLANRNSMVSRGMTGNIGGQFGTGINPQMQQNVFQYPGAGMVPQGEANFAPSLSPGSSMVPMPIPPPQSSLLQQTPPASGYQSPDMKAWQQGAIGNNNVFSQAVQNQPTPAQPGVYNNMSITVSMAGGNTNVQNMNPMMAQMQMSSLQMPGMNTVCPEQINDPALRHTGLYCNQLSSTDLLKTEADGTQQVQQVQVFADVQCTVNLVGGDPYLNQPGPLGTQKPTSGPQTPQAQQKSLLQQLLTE
Sequence of Peroxisome proliferator-activated receptor gamma/Nuclear receptor coactivator 2 (P37231 whole entry): as the sequence (P37231 whole entry) above
Sequence of Peroxisome proliferator-activated receptor gamma/Nuclear receptor coactivator 2 (Q15596 whole entry, further chain): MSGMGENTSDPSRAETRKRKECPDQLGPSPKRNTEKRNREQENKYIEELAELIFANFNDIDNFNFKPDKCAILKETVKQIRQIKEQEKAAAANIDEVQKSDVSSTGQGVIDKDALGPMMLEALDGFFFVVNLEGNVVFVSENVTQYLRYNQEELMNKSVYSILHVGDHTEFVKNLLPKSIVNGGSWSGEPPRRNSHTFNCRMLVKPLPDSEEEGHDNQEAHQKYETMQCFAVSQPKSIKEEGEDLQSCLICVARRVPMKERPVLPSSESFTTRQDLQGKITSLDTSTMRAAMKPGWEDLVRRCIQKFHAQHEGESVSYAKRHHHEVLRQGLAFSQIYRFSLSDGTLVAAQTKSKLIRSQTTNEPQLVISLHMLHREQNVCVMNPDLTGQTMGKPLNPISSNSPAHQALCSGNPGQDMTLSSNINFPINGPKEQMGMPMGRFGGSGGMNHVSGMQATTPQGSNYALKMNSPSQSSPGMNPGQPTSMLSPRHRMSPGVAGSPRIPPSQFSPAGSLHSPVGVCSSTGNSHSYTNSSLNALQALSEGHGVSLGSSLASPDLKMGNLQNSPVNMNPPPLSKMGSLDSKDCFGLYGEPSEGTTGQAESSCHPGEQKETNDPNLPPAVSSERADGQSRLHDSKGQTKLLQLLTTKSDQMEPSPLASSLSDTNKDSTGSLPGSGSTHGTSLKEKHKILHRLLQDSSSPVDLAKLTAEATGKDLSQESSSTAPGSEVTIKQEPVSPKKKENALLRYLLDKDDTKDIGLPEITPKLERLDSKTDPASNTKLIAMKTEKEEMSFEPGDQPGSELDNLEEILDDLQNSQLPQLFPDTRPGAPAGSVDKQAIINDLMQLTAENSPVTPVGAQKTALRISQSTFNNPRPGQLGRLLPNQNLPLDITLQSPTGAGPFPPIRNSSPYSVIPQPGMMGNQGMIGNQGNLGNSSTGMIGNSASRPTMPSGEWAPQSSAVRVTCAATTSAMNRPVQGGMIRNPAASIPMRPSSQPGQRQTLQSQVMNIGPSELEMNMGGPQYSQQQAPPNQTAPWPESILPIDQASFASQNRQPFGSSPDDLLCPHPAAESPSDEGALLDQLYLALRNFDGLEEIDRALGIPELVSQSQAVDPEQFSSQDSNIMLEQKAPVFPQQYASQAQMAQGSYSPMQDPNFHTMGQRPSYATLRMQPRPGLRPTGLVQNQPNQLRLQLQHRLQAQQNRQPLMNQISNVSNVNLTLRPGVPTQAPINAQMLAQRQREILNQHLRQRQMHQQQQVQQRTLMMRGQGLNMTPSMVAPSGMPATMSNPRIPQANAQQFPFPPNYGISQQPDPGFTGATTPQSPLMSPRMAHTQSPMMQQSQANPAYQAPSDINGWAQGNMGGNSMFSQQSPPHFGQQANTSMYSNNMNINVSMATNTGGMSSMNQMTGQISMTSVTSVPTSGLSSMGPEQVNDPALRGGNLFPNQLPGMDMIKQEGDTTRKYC
Sequence of Glyceraldehyde-3-phosphate dehydrogenase (P04406 whole entry): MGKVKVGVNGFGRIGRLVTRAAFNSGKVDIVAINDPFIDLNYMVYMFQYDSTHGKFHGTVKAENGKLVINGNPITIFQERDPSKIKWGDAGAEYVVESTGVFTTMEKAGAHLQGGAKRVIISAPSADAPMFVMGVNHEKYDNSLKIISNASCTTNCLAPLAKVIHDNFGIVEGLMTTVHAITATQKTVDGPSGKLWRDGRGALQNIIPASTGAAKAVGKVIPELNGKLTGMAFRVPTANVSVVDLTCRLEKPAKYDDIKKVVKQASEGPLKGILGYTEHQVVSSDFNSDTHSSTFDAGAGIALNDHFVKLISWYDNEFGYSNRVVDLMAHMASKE
Sequence of Cytochrome P450 3A4 (P08684 whole entry): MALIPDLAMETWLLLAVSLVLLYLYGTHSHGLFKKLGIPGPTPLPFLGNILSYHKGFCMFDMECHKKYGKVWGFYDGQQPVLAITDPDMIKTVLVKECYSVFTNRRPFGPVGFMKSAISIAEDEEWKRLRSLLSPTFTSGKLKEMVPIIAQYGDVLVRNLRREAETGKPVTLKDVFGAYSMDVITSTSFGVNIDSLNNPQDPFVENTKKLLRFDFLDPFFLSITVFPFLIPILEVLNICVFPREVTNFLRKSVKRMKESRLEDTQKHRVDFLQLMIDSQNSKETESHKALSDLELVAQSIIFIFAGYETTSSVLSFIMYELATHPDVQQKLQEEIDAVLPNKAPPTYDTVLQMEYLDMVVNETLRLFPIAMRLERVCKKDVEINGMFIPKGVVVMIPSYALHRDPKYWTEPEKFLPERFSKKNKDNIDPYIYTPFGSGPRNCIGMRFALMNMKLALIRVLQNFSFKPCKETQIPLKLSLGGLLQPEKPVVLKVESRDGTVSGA

With `CN1C(=O)/C(=C/c2c[nH]nc2-c2ccccc2)SC1=S` the IC50 [1] was 0.653 µM (active).
In the case of `CC(C)Sc1oc(-c2ccco2)nc1S(=O)(=O)c1ccccc1`, the EC50 [2] was 6.48 µM (active), the EC50 [3] was > 79.4 µM (not active) and the EC50 [4] was 9.32 µM (active).
With `COc1cccc(-c2ccc(NC(=O)C3CCCN(Cc4cnc(C)n4C)C3)cc2)c1` (stereo not given) the CC50 (Vero [5]) was > 25 µM (active) and the IC50 (Vero [6]) was 20.3 µM (active).
With `O=c1c(Cl)c(N2CCN(S(=O)(=O)c3ccc(F)cc3)CC2)cnn1-c1cccc(Cl)c1` the EC50 [2] was 9.63 µM (active), the AC50 (Cytochrome P450 3A4) was 20 µM (inconclusive) and the EC50 [3] was 18.7 µM (not active). For the same compound, the EC50 [4] was 9.06 µM (active).
With `ClCc1csc(-c2ccccc2Cl)n1` the EC50 [2] was > 79.4 µM (inactive), the EC50 [3] was > 79.4 µM (not active) and the EC50 [4] was > 79.4 µM (not active).
With `COc1cc(N(O)O)ccc1S(=O)(=O)Nc1cnc2ccccc2c1` the IC50 [7] was > 100 µM (not active) and the IC50 [8] was 0.74 µM (active).
In the case of `CCCN(CCC)C(=O)CSc1nc2c(sc(=S)n2-c2ccc(OCC)cc2)c(=O)[nH]1`, the IC50 (Aminopeptidase N) was 68.3 µM (active) and the IC50 [1] was 1.77 µM (active).
With `O=C(c1cccc(S(=O)(=O)N2CCCC2)c1)N1CCCC(C(F)(F)F)C1` (stereo not given) the IC50 [9] was 10.7 µM (active), the IC50 [10] was 8.31 µM (active) and the IC50 (Bcl-2-related protein A1) was > 20 µM (inactive).
In the case of `CCCCCn1c(CN2CCN(c3cc(Cl)ccc3C)CC2)nc2c1c(=O)[nH]c(=O)n2C`, the AC50 (Cytochrome P450 3A4) was 2.24 µM (inconclusive), the EC50 (Streptokinase A) was > 150 µM (not active) and the EC50 [11] was 12.8 µM (active). For the same compound, the EC50 [12] was 5.57 µM (active), the EC50 [13] was 4.65 µM (active) and the EC50 [14] was > 20 µM (not active). For the same compound, the EC50 (Streptococcus) was 5.85 µM (active) and the EC50 [15] was 4.7 µM (active).
For `O=C(NCC1CCN(Cc2ccc(Cl)cc2)CC1)C1CCCN(c2ncnc3c2nc2n3CCCCC2)C1` (stereo not given), the IC50 [9] was 7.67 µM (active), the IC50 [10] was 8.14 µM (active) and the IC50 (Bcl-2-related protein A1) was > 20 µM (inactive). The EC50 (cells) was > 29.9 µM (inactive) and the IC50 (Galanin receptor type 3) was > 29.9 µM (inactive).
With `COc1ccc(OC)c(C(=O)Nc2cnc3ccccc3c2)c1` the IC50 [7] was > 100 µM (not active) and the IC50 [8] was > 100 µM (inactive).
For `CCCn1c(SCC(=O)Nc2nc3ccccc3s2)nc2c1c(=O)n(C)c(=O)n2C`, the EC50 [16] was > 99 µM (inactive) and the EC50 [17] was > 99 µM (inactive).
With `CCc1ccc(OC)c(S(=O)(=O)Nc2cccnc2)c1` the IC50 [7] was > 100 µM (not active) and the IC50 [8] was 1.72 µM (active).
With `N#C/C(=C/C1=C(N2CCOCC2)C(=C/c2cccc([N+](=O)[O-])c2)/CC1)C(=O)Nc1ccccc1F` the EC50 [16] was > 99 µM (inactive) and the EC50 [17] was > 99 µM (inactive).
For `Cc1ccc(N(Cc2ccccc2)C(=O)CSC(C)C(=O)Nc2cc(C)on2)cc1` (stereo not given), the CC50 (Vero [5]) was 23.3 µM (active) and the IC50 (Vero [6]) was 15.6 µM (active).
For `Cn1ncc(/N=C/c2c(O)ccc3ccccc23)c1C(=O)Nc1cccc(Cl)c1`, the EC50 [16] was 94.5 µM (inactive) and the EC50 [17] was 26.2 µM (inactive).
